# Experimental data as given in patent US20230390273A1, “4-PHENYL-TETRAHYDROPYRIDINE DERIVATIVES FOR TREATING HEARING DISEASES” (CILCARE DEV, priority 2021, published 2023).
# Where a name gives a salt, the structure may show the parent alone. Read-outs that look alike come from different tables or passages of the source.
# Assays:
# Assay type in all cases: in vivo, male Wistar rats
# [1] = Plasma and inner ear fluid exposure after single oral gavage (Example 1); details: for concentration at 1 h / concentration at 2 h / concentration at 4 h / concentration at 6 h / concentration at 8 h / concentration at 24 h: male, Wistar; for concentration at 1 h: T0 + 1 hour; for concentration at 2 h: T0 + 2 hours; for concentration at 4 h: T0 + 4 hours; for concentration at 6 h: T0 + 6 hours; for concentration at 8 h: T0 + 8 hours
# Procedure: Two compositions were prepared: composition A and composition B.
# Composition A is an aqueous solution comprising: • 6 mg/mL (free base equivalent) of fumarate salt of 1-[2-(4-biphenylyl)ethyl]-4-(3-trifluoromethylphenyl)-1,2,3,6-tetrahydropyridine (=paliroden fumarate), and • 0.6% w/v of methylcellulose with respect to the total volume of the aqueous solution.
# Composition B is an aqueous solution comprising: • 4 mg/mL (free base equivalent) of hydrochloride salt of 1-[2-(2-naphthyl)ethyl]-4-(3-trifluoromethylphenyl)-1,2,3,6-tetrahydropyridine (=xaliproden hydrochloride), and • 10% w/v of arabic gum with respect to the total mass of the aqueous solution.
# Composition A and composition B were administered to male Wistar rats (5 animals per active agent and timepoint), as described below.
# Composition A was administered to 15 male Wistar rats, once, at time TO, via oral injection by gavage, at a dose of 5 mL of composition A per kilogram of the animal, i.e. a dose of 30 mg of paliroden fumarate per kilogram of the animal. The concentration of paliroden in rats plasma and in rats inner ear fluid (IEF) was measured at 6 timepoints, 5 rats being used at each timepoint for the concentration measurements (in the plasma and optionally in the IEF). The timepoints are T0+1 hour, T0+2 hours, T0+4 hours, T0+6 hours, T0+8 hours and T0+24 hours for the concentration measurement in the rats plasma. The timepoints are T0+2 hours, T0+4 hours and T0+24 hours for the concentration measurement in the rats inner ear fluid, as part of a terminal procedure including cochlea sampling and inner ear fluids collection from both ears of the rats. Bioanalytical methods were validated in both matrices (lithium heparin plasma and inner ear fluid) with a range of 0.25 to 500 ng/mL in plasma and 0.25 to 100 ng/mL in inner ear fluids.
# Composition B was administered to 15 others male Wistar rats, once, at time T0, via oral injection by gavage, at a dose of 5 mL of composition B per kilogram of the animal, i.e. a dose of 20 mg of xaliproden hydrochloride per kilogram of the animal. The concentration of xaliproden in rats plasma and in rats inner ear fluid (IEF) was measured at 6 timepoints, 5 rats being used at each timepoint for the concentrations measurements (in the plasma and optionally in the IEF). The timepoints are T0+1 hour, T0+2 hours, T0+4 hours, T0+6 hours, T0+8 hours and T0+24 hours for the concentration measurement in the rats plasma. The timepoints are T0+2 hours, T0+4 hours and T0+24 hours for the concentration measurement in the rats inner ear fluid, as part of a terminal procedure including cochlea sampling and inner ear fluids collection from both ears of the rats. Bioanalytical methods were validated in both matrices (lithium heparin plasma and inner ear fluid) with a range of 0.25 to 500 ng/mL in plasma and 0.25 to 500 ng/mL in inner ear fluids.
# [2] = Plasma and inner ear fluid exposure after single trans-tympanic injection in lipid-based mucoadhesive solution (Example 3); details: for concentration at 1 h: T0 + 1 hour; for concentration at 24 h: T0 + 24 hours; for High concentrations rapidly reached in the IEF (molar) / High concentrations rapidly reached in the inner ear fluid: trans-tympanic injection; for High concentrations rapidly reached in the IEF (molar): approximate conversion; for High concentrations rapidly reached in the inner ear fluid: summary
# Procedure: Composition 7P and composition 7X as described in example 2 were administered to male Wistar rats (5 animals per active agent and timepoint), as described below.
# At time T0, 30 μL of composition 7P were administered to 15 rats, in a single ear via trans-tympanic injection. The dose of paliroden fumarate that has been administered is thus of 243 μg in one ear of each rat.
# At time T0, 30 μL of composition 7X were administered to 15 other rats, in a single ear via trans-tympanic injection. The dose of xaliproden hydrochloride that has been administered is thus of 181.2 μg in one ear of each rat.
# For the 15 rats that have received composition 7P and for the 15 rats that have received composition 7X, plasmatic and inner ear expositions were determined via blood and cochlea terminal sampling in order to achieve lithium-heparin plasma and inner ear fluid preparation, at T+1 hour, T+24 hours and T+168 hours. Bioanalytical methods were validated in both matrices (lithium heparin plasma and inner ear fluid) with a range of 0.2 to 815 ng/mL for paliroden (fumarate salt) and 0.2 to 763 ng/mL for xaliproden (hydrochloride salt).
# [3] = test system: synaptic ribbons in inner hair cells; experiment: Ribbon synapse immunostaining and counting in cochlea, delayed treatment (Example 7); details: for Number of pre-synaptic and post-synaptic elements (CtBP2 and Homer) per IHC / Number of colocalized ribbons per IHC: 25 kHz, vs traumatized vehicle and NaCl groups, 2 days and 9 days post-noise; for Number of colocalized ribbons per IHC: statistically significant for Paliroden; for Synapse loss in the inner hair cells (FIG. 8): regions coding high frequency sounds, printed 2 hours and 8 days post-noise
# Procedure: At T+28 days, after DPOAE/ABR measures, 10 cochlea (all eight (8) left cochleae and two (2) right cochleae taken randomly) per group were rapidly sampled and immediately fixed by PFA perfusion (through the round and oval windows with PFA 4% after creating a small hole at the apex) in order to performed ribbon synapse immunostaining and analysis. Cochleae were fixed for 1 hour in a 4% PFA solution and decalcified in undiluted RDO (10 mL/cochlea for a minimum of 2 hours). The membranous and sensory spiral containing the organ of Corti are dissected out as a flat surface preparation under a dissecting microscope and immunolabelled with appropriate antibodies: • Vglut3 (Vglut3-Guinea Pig IgG; #135 204, Synaptic systems and Anti-Guinea Pig IgG (H+L), #A21450; Thermo Fisher Scientific 647 nm Far-Red) to stain inner hair cell bodies (vesicular glutamate transporter). • Homer (Homer-Rabbit IgG; #GTX103278; Genetex and Anti-Rabbit IgG (H+L) #A11008 Thermo Fisher Scientific 568 nm Red) to stain dendritic proteins of auditory nerve fibers connecting to IHC (post-synaptic). • CtBP2 (CtBP2-Mouse-IgG1; #612044; BD Transduction Laboratories and Anti-Mouse IgG1, #A21121, Thermo Fisher Scientific 488 Green) to stain the ribeye protein as pre-synaptic marker in IHC. • Phalloidin (Alexa Fluor™ Plus 405 Phalloidin; #A30104; Thermo Fisher Scientific 405 Blue).
# Images were acquired on a confocal microscope and the slides were analyzed to i) evaluate by visual observation the presence of OHC and IHC (based on nuclei staining with CtBP2 and HC cell body staining with phalloidin) and ii) count the number of synaptic ribbons in selected inner hair cells in cochlea regions coding sound of selected frequency (16 kHz, 25 kHz and 32 kHz).
# The number of pre- (CtBP2) and post-synaptic (Homer) labeled spots was counted using Imaris software in 3 dimensions for each image. Co-localization of pre- and post-synaptic elements was defined as a distance of maximum […] between CtBP2- and Homer-labeled spots, using an in-house Matlab program to calculate the distances between CtBP2 and Homer labels from the x, y, and z coordinates.
# [4] = plasma, rat, single oral 30 mg/kg, read-out: Concentration of paliroden (fumarate salt), Plasma, Mean
# [5] = rat inner ear fluid, single oral 30 mg/kg, read-out: Concentration of paliroden (fumarate salt), IEF, Mean
# [6] = male, Wistar, other: trans-tympanic injection, rat inner ear fluid, trans-tympanic 243 μg, read-out: Concentration of paliroden (fumarate salt), IEF, Mean
# [7] = male, Wistar, plasma, other: trans-tympanic injection, rat, trans-tympanic 243 μg one ear, read-out: Concentration of paliroden (fumarate salt), Plasma, Mean
# [8] = plasma, rat, single oral 20 mg/kg, read-out: Concentration of xaliproden (hydrochloride salt), Plasma, Mean
# [9] = rat inner ear fluid, single oral 20 mg/kg, read-out: Concentration of xaliproden (hydrochloride salt), IEF, Mean
# [10] = male, Wistar, other: trans-tympanic injection, rat inner ear fluid, trans-tympanic 181.2 μg, read-out: Concentration of xaliproden (hydrochloride salt), IEF, Mean
# [11] = male, Wistar, plasma, other: trans-tympanic injection, rat, trans-tympanic 181.2 μg one ear, read-out: Concentration of xaliproden (hydrochloride salt), Plasma, Mean
smiles,measurement,setting,value
"FC(F)(F)c1cccc(C2=CCN(CCc3ccc(-c4ccccc4)cc3)CC2)c1 [paliroden (fumarate salt), 1-[2-(4-biphenylyl)ethyl]-4-(3-trifluoromethylphenyl)-1,2,3,6-tetrahydropyridine]",concentration at 1 h,[1]; [4],35 ng/mL
same,concentration at 2 h,[1]; [4],106 ng/mL
same,concentration at 4 h,[1]; [4],3.1 ng/mL
same,concentration at 6 h,[1]; [4],4.4 ng/mL
same,concentration at 8 h,[1]; [4],1.6 ng/mL
same,concentration at 24 h,"[1]; plasma, rat, single oral 30 mg/kg, T0 + 24 hours, read-out: Concentration of paliroden (fumarate salt), Plasma, Mean",1.7 ng/mL
same,concentration at 2 h,[1]; [5],10.9 ng/mL
same,concentration at 4 h,[1]; [5],2.6 ng/mL
same,"Concentration of paliroden (fumarate salt), IEF, Mean","[1]; rat inner ear fluid, single oral 30 mg/kg, T0 + 24 hours",BLQ
same,concentration at 1 h,[2]; [6],5100 ng/mL
same,concentration at 24 h,[2]; [6],3.2 ng/mL
same,concentration at 1 h,[2]; [7],0.9 ng/mL
same,concentration at 24 h,[2]; [7],1.7 ng/mL
same,"Concentration of paliroden (fumarate salt), IEF, Mean","[2]; rat inner ear fluid, trans-tympanic 243 μg, T0 + 168 hours",BLQ
same,"Concentration of paliroden (fumarate salt), Plasma, Mean","[2]; rat, trans-tympanic 243 μg one ear, T0 + 168 hours",BLQ
same,High concentrations rapidly reached in the IEF (molar),[2]; rat,approximately 10 μM
same,High concentrations rapidly reached in the inner ear fluid,[2]; rat,approximately 5000 ng/mL
same,Number of pre-synaptic and post-synaptic elements (CtBP2 and Homer) per IHC,[3],increase
same,Number of colocalized ribbons per IHC,[3],increase
same,Synapse loss in the inner hair cells (FIG. 8),[3],significantly repair synapse loss
"FC(F)(F)c1cccc(C2=CCN(CCc3ccc4ccccc4c3)CC2)c1 [xaliproden (hydrochloride salt), 1-[2-(2-naphthyl)ethyl]-4-(3-trifluoromethylphenyl)-1,2,3,6-tetrahydropyridine]",concentration at 1 h,[1]; [8],44.1 ng/mL
same,concentration at 2 h,[1]; [8],58 ng/mL
same,concentration at 4 h,[1]; [8],25.1 ng/mL
same,concentration at 6 h,[1]; [8],28.4 ng/mL
same,concentration at 8 h,[1]; [8],23.4 ng/mL
same,concentration at 24 h,"[1]; plasma, rat, single oral 20 mg/kg, T0 + 24 hours, read-out: Concentration of xaliproden (hydrochloride salt), Plasma, Mean",44.1 ng/mL
same,concentration at 2 h,[1]; [9],19.4 ng/mL
same,concentration at 4 h,[1]; [9],21.7 ng/mL
same,concentration at 24 h,"[1]; rat inner ear fluid, single oral 20 mg/kg, T0 + 24 hours, read-out: Concentration of xaliproden (hydrochloride salt), IEF, Mean",16 ng/mL
same,concentration at 1 h,[2]; [10],2510 ng/mL
same,concentration at 24 h,[2]; [10],74.3 ng/mL
same,concentration at 1 h,[2]; [11],4.4 ng/mL
same,concentration at 24 h,[2]; [11],5.2 ng/mL
same,concentration at 168 h,"[2]; male, Wistar, plasma, other: trans-tympanic injection, rat, trans-tympanic 181.2 μg one ear, T0 + 168 hours, read-out: Concentration of xaliproden (hydrochloride salt), Plasma, Mean",0.5 ng/mL
same,"Concentration of xaliproden (hydrochloride salt), IEF, Mean","[2]; rat inner ear fluid, trans-tympanic 181.2 μg, T0 + 168 hours",BLQ
same,High concentrations rapidly reached in the IEF (molar),[2]; rat,~5 µM
same,High concentrations rapidly reached in the inner ear fluid,[2]; rat,~2500 ng/mL
same,Number of pre-synaptic and post-synaptic elements (CtBP2 and Homer) per IHC,[3],increase
same,Number of colocalized ribbons per IHC,[3],increase
same,Synapse loss in the inner hair cells (FIG. 8),[3],significantly repair synapse loss
